Experimental data taken from PubChem BioAssay (NCI).
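Where inhibition never reached the appropriate level, the endpoint shown equals the highest concentration tested. Otherwise, values were interpolated linearly from a five-concentration, 48-hour dose response in 96-well plates. GI50: concentration for 50% inhibition of growth. TGI: total growth inhibition.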

Experiments:
Test in all cases: NCI-60 cell line screen, 48 h
[1] = system: 786-0 renal
[2] = system: NCI-H460 lung
[3] = system: MALME-3M melanoma
[4] = system: SK-OV-3 ovarian
[5] = system: SNB-19 CNS
[6] = system: NCI/ADR-RES ovarian
[7] = system: HL-60(TB) leukemia
[8] = system: MDA-MB-231 breast
[9] = system: RPMI-8226 leukemia
[10] = system: HS 578T breast
[11] = system: UACC-62 melanoma
[12] = system: SF-539 CNS
[13] = system: UACC-257 melanoma
[14] = system: RXF 393 renal
[15] = system: SK-MEL-28 melanoma
[16] = system: PC-3 prostate
[17] = system: KM12 colon
[18] = system: SW-620 colon
[19] = system: SK-MEL-2 melanoma
[20] = system: HOP-62 NSCLC
[21] = system: COLO 205 colon
[22] = system: SNB-75 CNS
[23] = system: TK-10 renal
[24] = system: M14 melanoma
[25] = system: HCC-2998 colon
[26] = system: IGROV1 ovarian
[27] = system: OVCAR-4 ovarian
[28] = system: HCT-15 colon
[29] = system: A498 renal
[30] = system: U251 CNS
[31] = system: HCT-116 colon
[32] = system: SF-268 CNS
[33] = system: BT-549 breast
[34] = system: MDA-MB-435
[35] = system: MOLT-4 leukemia
[36] = system: SF-295 CNS
[37] = system: HT29 colon
[38] = system: MCF7 breast
[39] = system: LOX IMVI melanoma
[40] = system: CAKI-1 renal
[41] = system: UO-31 renal
[42] = system: CCRF-CEM leukemia
[43] = system: NCI-H226 lung
[44] = system: SN12C renal
[45] = system: NCI-H23 lung
[46] = system: HOP-92 NSCLC
[47] = system: OVCAR-3 ovarian
[48] = system: NCI-H522 lung
[49] = system: K-562 leukemia
[50] = system: DU-145 prostate
[51] = system: SR leukemia
[52] = system: SK-MEL-5 melanoma
[53] = system: A549 NSCLC
[54] = system: OVCAR-8 ovarian
[55] = system: OVCAR-5 ovarian
[56] = system: ACHN renal

SMILES: O=C(CCCCCCC(=O)Nc1ccc2c(c1)/C(=C/c1ccc[nH]1)C(=O)N2)NO
- GI50 [1]: 2370 nM
- TGI [1]: 26500 nM
- GI50 [2]: 2670 nM
- TGI [2]: > 100000 nM
- GI50 [3]: 75.8 nM
- TGI [3]: 35400 nM
- GI50 [4]: 341 nM
- TGI [4]: 3850 nM
- GI50 [5]: 585 nM
- TGI [5]: 33200 nM
- GI50 [6]: 3860 nM
- TGI [6]: > 100000 nM
- GI50 [7]: 464 nM
- TGI [7]: > 100000 nM
- GI50 [8]: 991 nM
- TGI [8]: 10000 nM
- GI50 [9]: 2900 nM
- TGI [9]: > 100000 nM
- GI50 [10]: 1010 nM
- TGI [10]: > 100000 nM
- GI50 [11]: 287 nM
- TGI [11]: 1390 nM
- GI50 [12]: 603 nM
- TGI [12]: 16000 nM
- GI50 [13]: 353 nM
- TGI [13]: 5440 nM
- GI50 [14]: 487 nM
- TGI [14]: 3660 nM
- GI50 [15]: 372 nM
- TGI [15]: 9300 nM
- GI50 [16]: 851 nM
- TGI [16]: > 100000 nM
- GI50 [17]: 894 nM
- TGI [17]: > 23200 nM
- GI50 [18]: 271 nM
- TGI [18]: > 21900 nM
- GI50 [19]: 851 nM
- TGI [19]: 7130 nM
- GI50 [20]: 353 nM
- TGI [20]: 4490 nM
- GI50 [21]: 245 nM
- TGI [21]: 1400 nM
- GI50 [22]: 194 nM
- TGI [22]: 65400 nM
- GI50 [23]: 795 nM
- TGI [23]: 7780 nM
- GI50 [24]: 427 nM
- TGI [24]: 10000 nM
- GI50 [25]: 1640 nM
- TGI [25]: 10900 nM
- GI50 [26]: 1610 nM
- TGI [26]: 7900 nM
- GI50 [27]: 1270 nM
- TGI [27]: 52000 nM
- GI50 [28]: 3930 nM
- TGI [28]: > 49300 nM
- GI50 [29]: 358 nM
- TGI [29]: 2060 nM
- GI50 [30]: 416 nM
- TGI [30]: 2290 nM
- GI50 [31]: 230 nM
- TGI [31]: 2870 nM
- GI50 [32]: 1050 nM
- TGI [32]: 13300 nM
- GI50 [33]: 1870 nM
- TGI [33]: 22000 nM
- GI50 [34]: 332 nM
- TGI [34]: 4570 nM
- GI50 [35]: 289 nM
- TGI [35]: > 100000 nM
- GI50 [36]: 1300 nM
- TGI [36]: 7510 nM
- GI50 [37]: 506 nM
- TGI [37]: 8510 nM
- GI50 [38]: 437 nM
- TGI [38]: > 69600 nM
- GI50 [39]: 548 nM
- TGI [39]: 2080 nM
- GI50 [40]: 2330 nM
- TGI [40]: > 100000 nM
- GI50 [41]: 963 nM
- TGI [41]: > 100000 nM
- GI50 [42]: 92.3 nM
- TGI [42]: > 100000 nM
- GI50 [43]: 2280 nM
- TGI [43]: 12000 nM
- GI50 [44]: 2070 nM
- TGI [44]: 26500 nM
- GI50 [45]: 1880 nM
- TGI [45]: 14800 nM
- GI50 [46]: 317 nM
- TGI [46]: 2760 nM
- GI50 [47]: 354 nM
- TGI [47]: 5510 nM
- GI50 [48]: 82.9 nM
- TGI [48]: 891 nM
- GI50 [49]: 333 nM
- TGI [49]: > 100000 nM
- GI50 [50]: 969 nM
- TGI [50]: 41600 nM
- GI50 [51]: 253 nM
- TGI [51]: > 100000 nM
- GI50 [52]: 240 nM
- TGI [52]: 1410 nM
- GI50 [53]: 2870 nM
- TGI [53]: 15200 nM
- GI50 [54]: 472 nM
- TGI [54]: > 89400 nM
- GI50 [55]: 755 nM
- TGI [55]: 5750 nM
- GI50 [56]: 904 nM
- TGI [56]: 4670 nM
